Laboratory results: article PMC6853232, “Discovery and evaluation of novel synthetic 5-alkyl-4-oxo-4,5-dihydro-[1,2,4]triazolo[4,3-a]quinoxaline-1-carbox-amide derivatives as anti-inflammatory agents” (Journal of Enzyme Inhibition and Medicinal Chemistry, 2019)
Where “and” joins values, the source holds several entries; their conditions need not be identical. Identical values can stand only once.

Legend:
[1] = MTT assay for cell viability; assay type: cell-based, mouse; details: mouse, RAW264.7 macrophage cells, 24 h, RAW264.7 cells
Description: The RAW 264.7 mouse macrophage cell line was obtained from the China Cell Line Bank (Beijing, China). Cells were cultured in complete medium (DMEM supplemented with 10% heat-inactivated FBS, 3 mM glutamine and antibiotics (100 U/mL penicillin and 100 U/mL streptomycin)) at 37 °C in a humidified incubator containing 5% CO2 and 95% air. […]
Cell viability studies induced by synthesised compounds were evaluated by 3-(4,5-dimethylthiazol-2-yl)-2,5-diphenyltetrazolium bromide (MTT) assay. RAW264.7 macrophages were seeded in 96-well plates at a density of 5 × 10^5 cells/mL in complete medium and incubated for 24 h (100 µL/well). Then the cells were treated with different concentrations of synthesised compounds for 24 h. 150 µL MTT (5 g/L in PBS) was added to each well and the cells were further incubated for 4 h. The supernatant was removed and the cells were lysed with 150 µL/well DMSO. The optical density was measured at 570 nm on a microplate reader (Thermo Scientific, MA, USA).

[2] = system: LPS-induced NO production in RAW264.7 macrophages; test: Inhibition of LPS-induced NO production (Griess); assay type: cell-based, mouse; details: 10 µM
Description: The RAW 264.7 mouse macrophage cell line was obtained from the China Cell Line Bank (Beijing, China). Cells were cultured in complete medium (DMEM supplemented with 10% heat-inactivated FBS, 3 mM glutamine and antibiotics (100 U/mL penicillin and 100 U/mL streptomycin)) at 37 °C in a humidified incubator containing 5% CO2 and 95% air. Cells were treated with various concentrations of synthesised compounds for 30 min followed by stimulation with LPS ([…]).
Nitrite, a stable product of nitric oxide, was used to assess NO production. To study the effects of the isolated compounds on NO production, RAW264.7 cells were plated at 1 × 10^5 cells/well in a 96-well microplate and incubated overnight. The cells were pre-treated with various concentrations of the test compounds (3, 7.5, 10, 15, 30 or 100 µM) and further co-cultured with 1 µg/mL LPS for 24 h. Un-pre-treated and un-stimulated RAW 264.7 cells were conducted as the blank control group. At different time points, the supernatant (50 µL) was assayed with NO assay kit. The culture supernatant (50 µL) was mixed with an equal volume of the Griess reagent (1% sulphanilamide, 0.1% N-[1-naphthy] ethylenediamine dihydrochloride) and NO production were determined at 540 nm with an ELISAplate reader.

[3] = system: carrageenan-induced paw oedema; test: Carrageenan-induced paw oedema model; assay type: in vivo, rats; details: 25 mg/kg p.o., n = 4
Description: The animal procedures were in strict accordance with the National Institutes of Healthy Guidelines for the Care and Use of Laboratory Animals (NIH Publication No. 85-23, revised 1996) and were approved by the Institutional Animal Care and Utilisation Committee of Yanbian University. Male albino rats weighing 280–300 gwere obtained from Animal Department of Yanbian University . They were kept in the animal house under standard condition of light and temperature with free access to food and water. The animals were randomly divided into five groups (control, D1, 6p, ibuprofen and celecoxib group) The groups with D1, 6p, ibuprofen and celecoxib were administered oral administration (p.o.) 25 mg/kg in a vehicle of 0.5% methylcellulose, respectively. The negative control group was treated with the same vehicle (0.5% methylcellulose). A solution of carrageenan (0.1 ml, 1.0% w/v in 0.9% of normal saline) was injected into the subplanter region of the left hind paw under light ether anaesthesia 1 h after oral administration (p.o.) of the test compound (at a dose level of 25 mg/kg body weight). The paw volume was measured at hourly interval for 5 h (0, 1, 3 and 5 h) and the percent inhibition of oedema was calculated using formula: %Inhibition=(Vt−Vo)control−(Vt−Vo)tested compound /(Vt−Vo)control×100 where, • Vo = volume of oedema at zero time interval. • Vt = volume of oedema at specific time interval.

[4] = system: gastric mucosa (stomach lesions); test: Ulcerogenic effect; assay type: in vivo; details: 25 mg/kg p.o. once a day for three days, rats
Description: The lead compound D1 and the newly synthesised compound 6p were subjected to in vivo testing to measure their ulcerogenic effect in comparison to celecoxib and ibuprofen. Male albino rats (220–250 g) divided into 5 groups (control, D1, 6p, ibuprofen and celecoxib group) of five rats each. The groups with D1, 6p, ibuprofen, and celecoxib were administered oral administration (p.o.) 25 mg/kg in a vehicle of 0.5% methylcellulose, respectively. The negative control group was treated with the same vehicle (0.5% methylcellulose). All groups were orally administered once a day for three consecutive days. Animals were sacrificed by diethyl ether 6 h after the last dose and the stomach was removed. An opening at the greater curvature was made and the stomach was cleaned by washing with cold saline and inspected with a three-time magnifying lens for any evidence of hyperaemia, haemorrhage, definite haemorrhagic erosion, or ulcer. An arbitrary scale was used to calculate the ulcer index which indicates the severity of the stomach lesions The % ulceration for each group was calculated as follows: % Ulceration = Number of animals bearing ulcer in a group/Total number of animals in the same group ×100.

Compound | melting point | viability at 24 h, 30 µM [1] | viability at 24 h, 10 µM [1] | further results
CCCCn1c(=O)c2nnc(C(N)=O)n2c2ccccc21 [6a, 5-butyl-4-oxo-4,5-dihydro-[1,2, 4]triazolo[4,3-a]quinoxaline-1-carboxamide] | 262 to 264 °C | 92.3 ± 1.53% | – | –
CCCCCn1c(=O)c2nnc(C(N)=O)n2c2ccccc21 [6b, 5-pentyl-4-oxo-4,5-dihydro-[1,2, 4]triazolo[4,3-a]quinoxaline-1-carboxamide] | 232 to 234 °C | 98 ± 1.1% | – | –
CCCCCCn1c(=O)c2nnc(C(N)=O)n2c2ccccc21 [6c, 5-hexyl-4-oxo-4,5-dihydro-[1,2, 4]triazolo[4,3-a]quinoxaline-1-carboxamide] | 239 to 241 °C | 99.11 ± 0.69% | – | –
CCCCCCCn1c(=O)c2nnc(C(N)=O)n2c2ccccc21 [6d, 5-heptyl-4-oxo-4,5-dihydro-[1,2, 4]triazolo[4,3-a]quinoxaline-1-carboxamide] | 231 to 233 °C | 81 ± 1.1% | – | –
CCCCCCCCn1c(=O)c2nnc(C(N)=O)n2c2ccccc21 [6e, 5-octyl-4-oxo-4,5-dihydro-[1,2, 4]triazolo[4,3-a]quinoxaline-1-carboxamide] | 230 to 232 °C | 99.5 ± 2.3% | – | anti-inflammatory activity (NO) within 5-alkyl derivatives 6a–6f ([2]; SAR ranking): the most active
CCCCCCCCCn1c(=O)c2nnc(C(N)=O)n2c2ccccc21 [6f, 5-nonyl-4-oxo-4,5-dihydro-[1,2, 4]triazolo[4,3-a]quinoxaline-1-carboxamide] | 236 to 238 °C | 60 ± 3.4% | 99.2 ± 1.65% | –
NC(=O)c1nnc2c(=O)n(Cc3ccccc3)c3ccccc3n12 [6g, 5-benzyl-4-oxo-4,5-dihydro-[1,2, 4]triazolo[4,3-a]quinoxaline-1-carboxamide] | 268 to 270 °C | 85 ± 1% | – | –
NC(=O)c1nnc2c(=O)n(Cc3ccccc3F)c3ccccc3n12 [6h, 5-(2-fluorobenzyl)-4-oxo-4,5-dihydro-[1,2, 4]triazolo[4,3-a]quinoxaline-1-carboxamide] | 273 to 275 °C | 66.7 ± 1.33% | 98.5 ± 1.76% | –
NC(=O)c1nnc2c(=O)n(Cc3cccc(F)c3)c3ccccc3n12 [6i, 5–(3-fluorobenzyl)-4-oxo-4,5-dihydro-[1,2, 4]triazolo[4,3-a]quinoxaline-1-carboxamide] | 276 to 278 °C | 59.3 ± 2.52% | 99.5 ± 4.17% | –
NC(=O)c1nnc2c(=O)n(Cc3ccc(F)cc3)c3ccccc3n12 [6j, 5-(4-fluorobenzyl)-4-oxo-4,5-dihydro-[1,2, 4]triazolo[4,3-a]quinoxaline-1-carboxamide] | 274 to 276 °C | 48 ± 3% | 73.5 ± 2.27% | –
NC(=O)c1nnc2c(=O)n(Cc3ccccc3Cl)c3ccccc3n12 [6k, 5-(2-chlorobenzyl)-4-oxo-4,5-dihydro-[1,2, 4]triazolo[4,3-a]quinoxaline-1-carboxamide] | 278 to 280 °C | 46.3 ± 2.89% | 74.6 ± 1.38% | –
Cc1ccc(-c2cc(C(F)(F)F)nn2-c2ccc(S(N)(=O)=O)cc2)cc1 [Celecoxib] | – | – | – | % of oedema inhibition (% mean ± SD) ([3]; 1 h): 48.09 ± 5.33%; % of oedema inhibition (% mean ± SD) ([3]; 3 h, 25 mg/kg): 58.34 ± 4.08%; % of oedema inhibition (% mean ± SD) ([3]; 3 h, listed as celecoxib, 25 mg/kg): 58.34%; % of oedema inhibition (% mean ± SD) ([3]; 5 h): 41.92 ± 2.05%
Cc1cccc(Oc2nn3c(C(N)=O)nnc3c3ccccc23)c1 [D1] | – | 96.3 ± 1.72% | – | % of oedema inhibition (% mean ± SD) ([3]; 1 h): 38.26 ± 2.82%; % of oedema inhibition (% mean ± SD) ([3]; 3 h, 25 mg/kg): 42.81% and 42.81 ± 2.11%; % of oedema inhibition (% mean ± SD) ([3]; 5 h): 28.71 ± 2.92%; % ulceration [4]: 20%; inhibition at 10 µM ([2]; Mus musculus, RAW264.7, LPS 1 µg/mL, 24 h, read-out: NO inhibitory activity (% inhibition)): 10.3%
CC(C)Cc1ccc(C(C)C(=O)O)cc1 (stereo not shown) [Ibuprofen] | – | – | – | % of oedema inhibition (% mean ± SD) ([3]; 1 h): 31.92 ± 5.76%; % of oedema inhibition (% mean ± SD) ([3]; 3 h, 25 mg/kg): 39.30 ± 4.86%; % of oedema inhibition (% mean ± SD) ([3]; 3 h, listed as ibuprofen, 25 mg/kg): 39.30%; % of oedema inhibition (% mean ± SD) ([3]; 5 h): 25.29 ± 3.43%

The next lines start with results.

melting point | Compound | viability at 24 h, 30 µM [1] | viability at 24 h, 10 µM [1] | further results
269 to 271 °C | NC(=O)c1nnc2c(=O)n(Cc3cccc(Cl)c3)c3ccccc3n12 [6l, 5-(3-chlorobenzyl)-4-oxo-4,5-dihydro-[1,2, 4]triazolo[4,3-a]quinoxaline-1-carboxamide] | 51.7 ± 2.12% | 87.9 ± 5.18% | –
282 to 284 °C | NC(=O)c1nnc2c(=O)n(Cc3ccc(Cl)cc3)c3ccccc3n12 [6m, 5-(4-chlorobenzyl)-4-oxo-4,5-dihydro-[1,2, 4]triazolo[4,3-a]quinoxaline-1-carboxamide] | 44.7 ± 3.06% | 82.2 ± 1.74% | –
266 to 268 °C | COc1cccc(Cn2c(=O)c3nnc(C(N)=O)n3c3ccccc32)c1 [6n, 5-(3-methoxybenzyl)-4-oxo-4,5-dihydro-[1,2, 4]triazolo[4,3-a]quinoxaline-1-carboxamide] | 93.33 ± 0.58% | – | –
264 to 266 °C | COc1ccc(Cn2c(=O)c3nnc(C(N)=O)n3c3ccccc32)cc1 [6o, 5-(4-methoxybenzyl)-4-oxo-4,5-dihydro-[1,2, 4]triazolo[4,3-a]quinoxaline-1-carboamide] | 80.1 ± 1% | – | –
266 to 268 °C | NC(=O)c1nnc2c(=O)n(Cc3ccc(Cl)cc3Cl)c3ccccc3n12 [6q, 5-(2,4-dichlorobenzyl)-4-oxo-4,5-dihydro-[1,2, 4]triazolo[4,3-a]quinoxaline-1-carboxamide] | 56.7 ± 1.34% | 84.7 ± 6.49% | –
262 to 264 °C | NC(=O)c1nnc2c(=O)n(Cc3cccc(C(F)(F)F)c3)c3ccccc3n12 [6r, 5-(3-(Trifluoromethyl)benzyl)-4-oxo-4,5-dihydro-[1,2, 4]triazolo[4,3-a]quinox-aline-1-carboxamide] | 99.3 ± 0.6% | – | –
273 to 275 °C | NC(=O)c1nnc2c(=O)n(Cc3ccc([N+](=O)[O-])cc3)c3ccccc3n12 [6s, 5-(4-nitrobenzyl)-4-oxo-4,5-dihydro-[1,2, 4]triazolo[4,3-a]quinoxaline-1-carb-oxamide] | 80.1 ± 1.34% | – | –
298 to 300 °C | N#Cc1ccc(Cn2c(=O)c3nnc(C(N)=O)n3c3ccccc32)cc1 [6t, 5-(4-cyanobenzyl)-4-oxo-4,5-dihydro-[1,2, 4]triazolo[4,3-a]quinoxaline-1-carboxamide] | 90.3 ± 1.21% | – | –
